Like-named read-outs stand apart in the source and are kept apart here.
Columns and labels:
K-Ras G12S = target: T1, K-Ras G12S (Homo sapiens, UniProt P01116, G12S); assay: HTRF assay of the K-Ras / SOS1 interaction; assay type: biochemical; conditions: IC50 (against K-Ras G12D) to IC50 (against K-Ras G12S)
T1 construct: made in house; host or cells: E. coli (e.g., BL21 (DE3))
In short: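 Compounds (duplicates, 10 µM to 0.01 µM) were incubated ≥~10 min with Eu-labelled GST-K-Ras G12S and XL665-labelled His-hSOS1 in HEPES pH 7.4 buffer containing NaCl, DTT, BSA and Igepal. Disruption measured as HTRF emission ratio 665/620 nm, fitted to IC50.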

GP2D cells = assay: Cell proliferation assay (CellTiter-Glo), K-Ras G12D cells; assay type: cell-based; conditions: read-out: Inhibition of GP2D Cells (IC50)
In short: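 CellTiter-Glo luminescence, taken roughly 5 days after dosing, measured growth of G12D-mutant GP2D cells in DMEM/2 mM glutamine/10% FBS. Compound dilution series (e.g., 9 points, 3-fold) added the day after plating. Four-parameter fitting gave IC50.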

A549 cells = assay: Cell proliferation assay (CellTiter-Glo), K-Ras G12S cells; assay type: cell-based; conditions: for IC50: Homo sapiens
Procedure: A549 (ATCC CRL-185) and LS123 (ATCC CRL-255) cell lines comprise a G12S mutation and can be used to assess Ras cellular signaling in vitro, e.g., in response to the compounds herein. A549 culture medium is prepared with RPMI-1640 and 10% heat-inactivated FBS. LS123 culture medium is prepared with RPMI-1640 and 10% heat-inactivated FBS. A CellTiter-Glo (CTG) luminescent based assay (Promega) is used to assess growth of the cells, as a measurement of the ability of the compounds herein to inhibit Ras signaling in the cells. The cells (e.g., 800 per well) are seeded in their respective culture medium in standard tissue culture-treated 384-well format plates (Falcon #08-772-116) or ultra-low attachment surface 384-well format plates (S-Bio # MS-9384WZ). The day after plating, cells are treated with a dilution series (e.g., a 10 point 3-fold dilution series) of the compounds herein (e.g., approximately 40 µl final volume per well). Cell viability can be monitored (e.g., approximately 6 days later) according to the manufacturer's recommended instructions, where the CellTiter-Glo reagent is added (e.g., approximately 10 µl), vigorously mixed, covered, and placed on a plate shaker (e.g., approximately for 20 min) to ensure sufficient cell lysis prior to assessment of luminescent signal. The IC50 values are determined using the four parameter fit. The resulting IC50 value is a measurement of the ability of the compounds herein to reduce cell growth of Ras-driven cells (e.g., tumor cell lines) in vitro and/or in vivo.

[1] = A549, read-out: Inhibition of A549 Cells (IC50)
[2] = A549, A549 cells (K-Ras G12S), bin 500 nM to 5 µM, read-out: Inhibition of A549 Cells (IC50)
[3] = A549, A549 cells (K-Ras G12S), bin ≤ 500 nM, read-out: Inhibition of A549 Cells (IC50)

T1 sequence (P01116 1-188 isoform P01116-2 G12S): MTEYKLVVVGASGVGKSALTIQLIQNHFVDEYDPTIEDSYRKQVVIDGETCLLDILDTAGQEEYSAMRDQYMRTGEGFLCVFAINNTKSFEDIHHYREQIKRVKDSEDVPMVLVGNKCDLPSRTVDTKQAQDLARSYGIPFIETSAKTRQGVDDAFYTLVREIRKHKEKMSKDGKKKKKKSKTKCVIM

| IC50 (A549 cells; [3]) [µM] | ratio of IC50 against a G12D cell line to IC50 against a G12S cell line (A549 cells; K-Ras G12D cell line such as GP2D relative to K-Ras G12S cell line such as A549, greater than 1, 2, 3, 4, 5, 10, 15 or even greater, 8640 min) | Compound | Ratio of IC50 KRAS G12D vs. IC50 KRAS G12S (K-Ras G12S) | IC50 (GP2D cells; GP2d) [µM] | IC50 (A549 cells; [1]) [µM] | IC50 (GP2D cells; GP2D cells (K-Ras G12D)) [µM] | IC50 (A549 cells; [2]) [µM] |
| --- | --- | --- | --- | --- | --- | --- | --- |
|  |  | Nc1nc2c(-c3c(Cl)cc4c(N5C[C@H]6CC[C@@H](C5)N6C(=O)Nc5ccncn5)nc(OC[C@@]56CCCN5C[C@H](F)C6)nc4c3F)ccc(F)c2s1 [Compound A223, (1R,5S)-3-(7-(2-amino-7-fluorobenzo[d]thiazol-4-yl)-6-chloro-8-fluoro-2-(((2R,7aS)-2-fluorotetrahydro-1H-pyrrolizin-7a(5H)-yl)methoxy)quinazolin-4-yl)-N-(pyrimidin-4-yl)-3,8-diazabicyclo[3.2. 1]octane-8-carboxamide] | A (A: indicates that the ratio of IC50 against KrasG12D vs. IC50 against KrasG12S is 1-fold or greater) | ≤ 1 | 0.5 to 5 |  |  |
|  |  | Nc1nc2c(-c3c(Cl)cc4c(N5CC6CCC(C5)N6C(=O)n5ccnc5Cl)nc(OC[C@@]56CCCN5C[C@H](F)C6)nc4c3F)ccc(F)c2s1 [Compound A242, (3-(7-(2-amino-7-fluorobenzo[d]thiazol-4-yl)-6-chloro-8-fluoro-2-(((2R,7aS)-2-fluorotetrahydro-1H-pyrrolizin-7a(5H)-yl)methoxy)quinazolin-4-yl)-3,8-diazabicyclo[3.2.1]octan-8-yl)(2-chloro-1H-imidazol-1-yl)methanone] | A (A: indicates that the ratio of IC50 against KrasG12D vs. IC50 against KrasG12S is 1-fold or greater) |  |  | ≤ 1 | 0.5 to 5 |
|  |  | Nc1nc2c(-c3c(Cl)cc4c(N5CC6CCC(C5)N6C(=O)n5cncn5)nc(OC[C@@]56CCCN5C[C@H](F)C6)nc4c3F)ccc(F)c2s1 [Compound A111, (3-(7-(2-amino-7-fluorobenzo[d]thiazol-4-yl)-6-chloro-8-fluoro-2-(((2R,7aS)-2-fluorotetrahydro-1H-pyrrolizin-7a(5H)-yl)methoxy)quinazolin-4-yl)-3,8-diazabicyclo[3.2.1]octan-8-yl)(1H-1,2,4-triazol-1-yl)methanone] | A (A: indicates that the ratio of IC50 against KrasG12D vs. IC50 against KrasG12S is 1-fold or greater) |  |  | ≤ 1 | 0.5 to 5 |
|  |  | C#Cc1c(F)ccc2cc(O)cc(-c3ncc4c(N5CCOCC6(CN(C(=O)n7cncn7)C6)C5)nc(OC[C@@]56CCCN5C[C@H](F)C6)nc4c3F)c12 [Compound A158, (9-(7-(8-ethynyl-7-fluoro-3-hydroxynaphthalen-1-yl)-8-fluoro-2-(((2R,7aS)-2-fluorotetrahydro-1H-pyrrolizin-7a(5H)-yl)methoxy)pyrido[4,3-d]pyrimidin-4-yl)-6-oxa-2,9-diazaspiro[3.6]decan-2-yl)(1H-1,2,4-triazol-1-yl)methanone] | A (A: indicates that the ratio of IC50 against KrasG12D vs. IC50 against KrasG12S is 1-fold or greater) |  |  | 1 to 10 | 0.5 to 5 |
|  |  | Cc1ncn(C(=O)N2C3CCC2CN(c2nc(OC[C@@]45CCCN4C[C@H](F)C5)nc4c(F)c(-c5ccc(F)c6sc(N)c(C#N)c56)c(Cl)cc24)C3)n1 [Compound A186, 2-amino-4-(6-chloro-8-fluoro-2-(((2R,7aS)-2-fluorotetrahydro-1H-pyrrolizin-7a(5H)-yl)methoxy)-4-(8-(3-methyl-1H-1,2,4-triazole-1-carbonyl)-3,8-diazabicyclo[3.2.1]octan-3-yl)quinazolin-7-yl)-7-fluorobenzo[b]thiophene-3-carbonitrile] | A (A: indicates that the ratio of IC50 against KrasG12D vs. IC50 against KrasG12S is 1-fold or greater) | ≤ 1 | 0.5 to 5 |  |  |
|  |  | Cc1nc(C)n(C(=O)N2CC3(CCCN(c4nc(OC[C@@]56CCCN5C[C@H](F)C6)nc5c(F)c(-c6ccc(F)c7sc(N)c(C#N)c67)c(Cl)cc45)C3)C2)n1 [Compound A190, 2-amino-4-(6-chloro-4-(2-(3,5-dimethyl-1H-1,2,4-triazole-1-carbonyl)-2,6-diazaspiro[3.5]nonan-6-yl)-8-fluoro-2-(((2R,7aS)-2-fluorotetrahydro-1H-pyrrolizin-7a(5H)-yl)methoxy)quinazolin-7-yl)-7-fluorobenzo[b]thiophene-3-carbonitrile] | A (A: indicates that the ratio of IC50 against KrasG12D vs. IC50 against KrasG12S is 1-fold or greater) |  |  | 1 to 10 | 0.5 to 5 |
| ≤ 0.5 | greater than 1 | N#Cc1c(N)sc2c(F)ccc(-c3c(Cl)cc4c(N5CCCC6C5CCN6C(=O)n5cncn5)nc(OC[C@@]56CCCN5C[C@H](F)C6)nc4c3F)c12 (stereo partly drawn) [Compound A184, 4-(4-(1-(1H-1,2,4-triazole-1-carbonyl)octahydro-4H-pyrrolo[3,2-b]pyridin-4-yl)-6-chloro-8-fluoro-2-(((2R,7aS)-2-fluorotetrahydro-1H-pyrrolizin-7a(5H)-yl)methoxy)quinazolin-7-yl)-2-amino-7-fluorobenzo[b]thiophene-3-carbonitrile] | A (A: indicates that the ratio of IC50 against KrasG12D vs. IC50 against KrasG12S is 1-fold or greater) |  |  | ≤ 1 |  |
| ≤ 0.5 |  | N#Cc1c(N)sc2c(F)ccc(-c3c(Cl)cc4c(N5CC6CCN(C(=O)n7cncn7)C6C5)nc(OC[C@@]56CCCN5C[C@H](F)C6)nc4c3F)c12 (stereo partly drawn) [Compound A180, 4-(4-(1-(1H-1,2,4-triazole-1-carbonyl)hexahydropyrrolo[3,4-b]pyrrol-5(1H)-yl)-6-chloro-8-fluoro-2-(((2R,7aS)-2-fluorotetrahydro-1H-pyrrolizin-7a(5H)-yl)methoxy)quinazolm-7-yl)-2-amino-7-fluorobenzo[b]thiophene-3-carbonitrile] | A (A: indicates that the ratio of IC50 against KrasG12D vs. IC50 against KrasG12S is 1-fold or greater) |  |  | 1 to 10 |  |
| ≤ 0.5 |  | N#Cc1c(N)sc2c(F)ccc(-c3c(Cl)cc4c(N5CCC6C5CCN6C(=O)n5cncn5)nc(OC[C@@]56CCCN5C[C@H](F)C6)nc4c3F)c12 (stereo partly drawn) [Compound A108, 4-(4-(4-(1H-1,2,4-triazole-1-carbonyl)hexahydropyrrolo[3,2-b]pyrrol-1(2H)-yl)-6-chloro-8-fluoro-2-(((2R,7aS)-2-fluorotetrahydro-1H-pyrrolizin-7a(5H)-yl)methoxy)quinazolin-7-yl)-2-amino-7-fluorobenzo[b]thiophene-3-carbonitrile] | A (A: indicates that the ratio of IC50 against KrasG12D vs. IC50 against KrasG12S is 1-fold or greater) |  |  | ≤ 1 |  |
|  |  | N#Cc1ccn(C(=O)N2C3CCC2CN(c2nc(OC[C@@]45CCCN4C[C@H](F)C5)nc4c(F)c(-c5ccc(F)c6sc(N)nc56)c(Cl)cc24)C3)n1 [Compound A245, 1-(3-(7-(2-amino-7-fluorobenzo[d]thiazol-4-yl)-6-chloro-8-fluoro-2-(((2R,7aS)-2-fluorotetrahydro-1H-pyrrolizin-7a(5H)-yl)methoxy)quinazolin-4-yl)-3,8-diazabicyclo[3.2. 1]octane-8-carbonyl)-1H-pyrazole-3-carbonitrile] | A (A: indicates that the ratio of IC50 against KrasG12D vs. IC50 against KrasG12S is 1-fold or greater) |  |  | ≤ 1 | 0.5 to 5 |

| Compound | IC50 (A549 cells; [3]) [µM] | ratio of IC50 against a G12D cell line to IC50 against a G12S cell line (A549 cells; K-Ras G12D cell line such as GP2D relative to K-Ras G12S cell line such as A549, greater than 1, 2, 3, 4, 5, 10, 15 or even greater, 8640 min) | Ratio of IC50 KRAS G12D vs. IC50 KRAS G12S (K-Ras G12S) | IC50 (GP2D cells; GP2d) [µM] | IC50 (A549 cells; [1]) [µM] | IC50 (GP2D cells; GP2D cells (K-Ras G12D)) [µM] | IC50 (A549 cells; [2]) [µM] |
| --- | --- | --- | --- | --- | --- | --- | --- |
| N#Cc1c(N)sc2c(F)ccc(-c3c(Cl)cc4c(N5CC6CCC(C5)N6C(=O)n5cncn5)nc(OC[C@@]56CCCN5C[C@H](F)C6)nc4c3F)c12 [Compound A260, 4-(4-(8-(1H-1,2,4-triazole-1-carbonyl)-3,8-diazabicyclo[3.2.1]octan-3-yl)-6-chloro-8-fluoro-2-(((2R,7aS)-2-fluorotetrahydro-1H-pyrrolizin-7a(5H)-yl)methoxy)quinazolin-7-yl)-2-amino-7-fluorobenzo[b]thiophene-3-carbonitrile] | ≤ 0.5 |  | A (A: indicates that the ratio of IC50 against KrasG12D vs. IC50 against KrasG12S is 1-fold or greater) |  |  | ≤ 1 |  |
